Results on 22 compounds are retold here after US4820722A, “Disubstituted tetrazoles and their use as leukotriene antagonists” (Eli Lilly and Company, priority 1987, dated 1989).

For the first assay, the target named is T1, LTD4 responses of guinea pig ileum and trachea (Cavia porcellus, UniProt Q2NNR5).
T1 sequence (Q2NNR5 1-340): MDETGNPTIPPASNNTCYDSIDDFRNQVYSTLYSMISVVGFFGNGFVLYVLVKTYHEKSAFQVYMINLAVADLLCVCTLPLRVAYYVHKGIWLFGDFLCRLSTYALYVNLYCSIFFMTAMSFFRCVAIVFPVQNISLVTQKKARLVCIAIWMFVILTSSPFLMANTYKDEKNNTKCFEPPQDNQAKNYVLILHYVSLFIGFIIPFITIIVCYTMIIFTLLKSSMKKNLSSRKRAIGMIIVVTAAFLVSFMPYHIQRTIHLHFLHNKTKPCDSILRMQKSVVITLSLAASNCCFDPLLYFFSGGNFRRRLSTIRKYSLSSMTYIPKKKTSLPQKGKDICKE
In words: LTD4 antagonism, cumulative LTD4 concentration-response curves in guinea pig ileum and trachea (KB by Furthgott method). The note with it: 30 minute incubation with antagonist, Table I title names ileal contractions. The class given is cell-based, guinea pig (male Hartley).
Consider `CCCc1c(COc2ccc(-c3nnn(CCCc4nnn[nH]4)n3)cc2)ccc(C(C)=O)c1O` [Example 36], for which the “pKB (negative log of the dissociation KB)” value was determined as 7.63. The same measure, in the same setting: the result for `CCCc1c(COc2ccc(Cc3nnnn3CCCN(C)C)cc2)ccc(C(C)=O)c1O` [Example 16, 5-[(4-((4-Acetyl-3-hydroxy-2-propylphenyl)methoxy)phenyl)methyl]-1-(3-(dimethylamino)propyl)-1H-tetrazole] reads 6.01. Same read-out and setting: the result for `CCCc1c(COc2ccc(Cc3nnn(CCCS(C)(=O)=O)n3)cc2)ccc(C(C)=O)c1O` [Example 40, 5-[(4-((4-Acetyl-3-hydroxy-2-propylphenyl)methoxy)phenyl)methyl]-2-(3-methylsulfonylpropyl)-2H-tetrazole] reads 6.37; that for `CCCc1c(COc2ccc(Cc3nnn(CCCCCc4nnn[nH]4)n3)cc2)ccc(C(C)=O)c1O.[Na]`, 7.64. The same measure, in the same setting: the result for `CCCc1c(COc2ccc(Cc3nnn(CCC(C)(C)Cc4nnn[nH]4)n3)cc2)ccc(C(C)=O)c1O` [Example 28] reads 7.70; that for `CCCc1c(COc2ccc(Cc3nnn(CCC[S+](C)[O-])n3)cc2)ccc(C(C)=O)c1O` (stereo not shown) [Example 39, 5-[(4-((4-Acetyl-3-hydroxy-2-propylphenyl)methoxy)phenyl)methyl]-2-(3-methylsulfinylpropyl)-2H-tetrazole], 6.50; that for `CCCc1c(COc2ccc(Cc3nnn(CCCCCCc4nnn[nH]4)n3)cc2)ccc(C(C)=O)c1O` [Example 27, 1-[2-Hydroxy-3-propyl-4-[[4-[[2-[6-(1H-tetrazol-5-yl)hexyl]-2H-tetrazol-5-yl]methyl]phenoxy]methyl]phenyl]ethanone], 7.38. In the case of `CCCc1c(COc2ccc(Cc3nnn(Cc4ccc(-c5nnn[nH]5)cc4)n3)cc2)ccc(C(C)=O)c1O` [Example 38, 1-[2-Hydroxy-3-propyl-4-[[4-[[2-[[4-(1H-tetrazol-5-yl)phenyl]methyl]-2H-tetrazol-5-yl]methyl]phenoxy]methyl]phenyl]ethanone], the “pKB (negative log of the dissociation KB)” value was 7.90. Still for that read-out and setting: the result for `CCCc1c(COc2ccc(Cc3nnn(CCCN(C)C)n3)cc2)ccc(C(C)=O)c1O` [Example 15, 5-[(4-((4-Acetyl-3-hydroxy-2-propylphenyl)methoxy)phenyl)methyl]-2-(3-(dimethylamino)propyl)-2H-tetrazole] reads 6.65.

Turning to `CCCc1c(COc2ccc(-c3nnn(CCCN(C)C)n3)cc2)ccc(C(C)=O)c1O` [Example 37, 1-[4-[[4-[2-[3-(Dimethylamino)propyl]-2H-tetrazol-5-yl]phenoxy]methyl]-2-hydroxy-3-propylphenyl]ethanone], the “pKB (negative log of the dissociation KB)” value turned out to be 6.37. The same measure, in the same setting: the result for `CCCc1c(COc2ccc(Cc3nnn(CCCSC)n3)cc2)ccc(C(C)=O)c1O` [Example 17, 5-[(4-((4-Acetyl-3-hydroxy-2-propylphenyl)methoxy)phenyl)methyl]-2-(3-methylthiopropyl)-2H-tetrazole] reads 6.45.

Another assay concerns LTD4 evoked contractions of guinea pig ileum. In words: LTD4 antagonism on isolated guinea pig ileum (inhibition of LTD4 evoked ileal contractions, single submaximal LTD4 responses). The note with it: Cavia porcellus, 37° C., five minute exposure to drug, 2-4 concentrations, linear regression interpolation, read-out: -log IC50 (antagonist concentration that produced 50% inhibition of the LTD4 responses) (converted). Format: cell-based, guinea pig (male Hartley). The procedure:
Male, Hartley guinea pigs weighing 200-450 grams were killed by decapitation. A section of terminal ileum was removed, the lumen cleaned, and the tissue divided into 2.5 cm. segments. The ilea were mounted in 10 ml. tissue baths containing Krebs-bicarbonate solution of the following composition in mmoles/liter: KCl, 4.6; CaCl2 ·2H2 O, 1.2; KH2 PO4, 1.2; MgSO4 ·7H20, 1.2; NaCl, 118.2; NaHCO3, 24.8; and dextrose, 10.0. The bath fluid was maintained at 37° C. and aerated with 95 percent oxygen and 5 percent CO2. In addition, the buffer contained […] atropine to reduce ileal spontaneous activity. Isometric measurements were made with a Grass FTO3C force-displacement transducer and recorded on a Grass polygraph as change in grams of force. A passive force of 0.5 g. was applied to the tissues. After an appropriate equilibration period, single submaximal control responses to pure LTD4 were obtained. Following a five minute exposure of the ileum to an experimental drug, the control concentration of LTD4 was added to the tissue bath. The response of the ileum to LTD4 in the presence of the drug was compared to the response in the absence of the drug. Various degrees of LTD4 antagonism were obtained using 2-4 different concentrations of an experimental compound on a single ileum.
Take `CCCc1c(COc2ccc(Cc3nnnn3CCCCC(=O)O)cc2)ccc(C(C)=O)c1O` [Example 34, 5-[(4-[(4-Acetyl-3-hydroxy-2-propylphenyl)methoxy]phenyl)methyl]-1H-tetrazol-1-valeric acid]: the IC50 was 55 nM.

On to `CCCc1c(COc2ccc(Cc3nnnn3CCCc3nnn[nH]3)cc2)ccc(C(C)=O)c1O` [Example 23], for which the IC50 was 14.1 nM. The same measure, in the same setting: the result for `CCCc1c(COc2ccc(Cc3nnnn3CCCCc3nnn[nH]3)cc2)ccc(C(C)=O)c1O` [Example 25] reads 19.1 nM; that for `CCCc1c(COc2ccc(Cc3nnn(CCCc4nnn[nH]4)n3)cc2)ccc(C(C)=O)c1O` [Example 24, 1-2[-Hydroxy-3-propyl-4[[4-[[2-[3-(1H-tetra-zol-5-yl)propyl]-2H-tetrazol-5-yl]methyl]phenoxy]methyl]phenyl]ethanone], 3.8 nM; that for `CCCc1c(COc2ccc(Cc3nnn(CC(=O)O)n3)cc2)ccc(C(C)=O)c1O` [Example 31, 5-[[4-[(4-Acetyl-3-hydroxy-2-propylphenyl)methoxy]phenyl]methyl]-2H-tetrazole-2-acetic acid], 28.2 nM. On the same count and under the same terms, the result for `CCCc1c(COc2ccc(Cc3nnn(CCCC(=O)O)n3)cc2)ccc(C(C)=O)c1O` [Example 33, 5-[(4-[(4-Acetyl-3-hydroxy-2-propylphenyl)methoxy]phenyl)methyl]-2H-tetrazole-2-butanoic acid] reads 20 nM; that for `CCCc1c(COc2ccc(Cc3nnn(CCCCc4nnn[nH]4)n3)cc2)ccc(C(C)=O)c1O` [Example 26, 1-[2-Hydroxy-3-propyl-4-[[4-[[2-[4-(1H-tetrazol-5-yl)butyl]tetrazol-5-yl]methyl]phenoxy]methyl]phenyl]ethanone], 8.13 nM. With `CCCc1c(COc2ccc(Cc3nnnn3Cc3nnn[nH]3)cc2)ccc(C(C)=O)c1O` [Example 21], the IC50 was 17.4 nM.

`CCCc1c(COc2ccc(Cc3nnnn3CCCC(=O)O)cc2)ccc(C(C)=O)c1O` [Example 32, 5-[[4-[[4-Acetyl-3-hydroxy-2-propylphenyl)methoxy]phenyl]methyl]-1H-tetrazole-1-butyric acid]: the IC50 is 57.5 nM. Still for that read-out and setting: the result for `CCCc1c(COc2ccc(Cc3nnn(Cc4nnn[nH]4)n3)cc2)ccc(C(C)=O)c1O` [Example 22, 1-[2-hydroxy-3-(propyl)-4-[[4-[[2-(1H-tetra-zol-5-ylmethyl)-2H-tetrazol-5-yl]methyl]phenoxyl]methyl]phenyl]ethanone] reads 11.7 nM. For the compound `CCCc1c(COc2ccc(Cc3nnn(CCCCC(=O)O)n3)cc2)ccc(C(C)=O)c1O` [Example 35, 5-[(4-[(4-Acetyl-3-hydroxy-2-propylphenyl)methoxy]phenyl)methyl]-2H-tetrazole-2-valeric acid], the IC50 is 11.7 nM.
